According to patent US6747021B2, “Cryptophycin compound” (Eli Lilly and Company, priority 2000, dated 2004):

Columns and labels:
[1] = test system: MAMMARY ADENOCARCINOMA-16/C/Adr; assay: Early stage murine mammary adenocarcinoma-16/C/Adr subcutaneous tumor assay; type: in vivo; details: IV 7.5 mg/kg/inj days 1 and 7; total dose 15 mg/kg; C3H female mice
Text: (§1) Inhibition of tumors transplanted into mice is an accepted procedure for studying the efficacy of antitumor agents (Corbett, et al., In vivo Methods for Screening and Preclinical Testing; Use of rodent solid tumors for drug discovery., In: Anticancer Drug Development Guide: Preclinical Screening, Clinical Trials, and Approval, B. Teicher (ed), Humana Press Inc., Totowa, N.J., Chapter 5, pages 75-99 (1997); (Corbett, et al., Int. J. Pharmacog., 33, Supplement, 102-122 (1995)). Murine tumors or human xenographs were implanted essentially as described by Corbett in In vivo Methods for Screening and Preclinical Testing; Use of rodent solid tumors for drug discovery. Briefly, the murine tumor or human xenograph was implanted subcutaneously using either 12-gauge trocar implants or counted number of cells. The location for the trocar insertion is midway between the axillary and inguinal region along the side of the mouse. The trocar is slipped approximately ¾ of an inch subcutaneously up toward the axilla before discharging the tumor fragment, and pinching the skin as the trocar is removed. Alternatively, human tumor cells prepared from a […] of donor tumors (5×10^6 cells) were implanted subcutaneously in a hind-leg of a male or female nude mouse (Charles River). Either a test compound in vehicle or vehicle alone was administered by intravenous bolus injection (iv), intraperitoneal injection (ip), or oral gavage (po). Each treatment group, as well as a group of untreated control animals, consisted of five animals per group in each experiment. Subcutaneous tumor response was monitored by tumor volume measurement performed twice each week over the course of the experiment (60-120 days). Body weights were taken as a general measure of toxicity. The subcutaneous tumor data were analyzed by determining the median tumor weight for each treatment group over the course of the experiment and calculating the tumor growth delay as the difference in days for the treatment versus the control tumors to reach a volume of either 500 or 1000 mm^3.
(§2) Cryptophycin-309 (309) was tested against a variety of murine and human tumors substantially as described supra. Cryptophycin-55 glycinate (55-GLY), Taxol, and Adriamycin (Adria) were also included in certain tests for purposes of comparison. Cryptophycin 55 glycinate is known in the art (WO 98/08505, Example 9) and has the following structure: [drawing 9]
(§3) Tumor Weight(mg)=(a×b^2)/2 where a=tumor length (mm) and b=tumor width (mm).
(§4) Tumor Growth Delay=T−C where T is the median time (days) required for the treatment group tumors to reach a predetermined size, and C is the median time (days) for the control group tumors to reach the same size. Tumor-free survivors are excluded from this calculation, and are tabulated separately (Tumor Free).
(§5) Log Kill=Tumor Growth Delay/(3.32)(Td)
(§6) where Tumor Growth Delay is as previously defined and Td is tumor volume doubling time (days), estimated from the best fit straight line from a log-linear growth plot of the control group of tumors in exponential growth (100-800 mg range)
(§7) %T/C mass—The treatment and control groups are measured when the control group tumors reach approximately 700 to 1200 mg in size (median group). The median tumor weight of each group is determined (including zeros). The T/C value in percent is an indication of antitumor effectiveness. A T/C≦42% is considered significant antitumor activity. A T/C<10% is considered to indicate highly significant antitumor activity.
(§8) Body Weight Loss Nadir—A body weight loss nadir (mean of group) of greater than 20% or drug deaths greater than 20% are considered to indicate an excessively toxic dosage in single course trials.
(§9) Activity Rating—the Activity Rating is derived from the Log Kill according to the following table: […]

[2] = test system: COLON ADENOCARCINOMA 51/A; assay: Early stage murine colon adenocarcinoma 51/A subcutaneous tumor assay; type: in vivo; details: IV 6.5 mg/kg/inj days 3,6,9; total dose 19.5 mg/kg; CDF female mice
Text: as §1, §2, §3, §4, §5, §6, §7, §8, §9

[3] = test system: COLON ADENOCARCINOMA-26/A; type: in vivo, murine; details: IV 6.5 mg/kg/inj days 1,5,9; total dose 19.5 mg/kg; Balb/C female mice
Text: as §1, §2, §3, §4, §5, §6, §7, §8, §9

COc1cccc2c1C(=O)c1c(O)c3c(c(O)c1C2=O)C[C@@](O)(C(=O)CO)C[C@@H]3O[C@H]1C[C@H](N)[C@H](O)[C@H](C)O1 [Adriamycin]
DRUG DEATHS [1]: 0/5
LOG KILL [1]: None
MEDIAN TUMOR WEIGHT [1]: 1096 mg
% T/C MASS [2]: 0%
ACTIVITY RATING [2]: +++ (2.0-2.8)
DRUG DEATHS [2]: 0/6
GROWTH DELAY [2]: 16.6 days
LOG KILL [2]: 2.0
MEDIAN TUMOR WEIGHT [2]: 0 mg
% T/C MASS [3]: 44%
DRUG DEATHS [3]: 0/5
LOG KILL [3]: None
MEDIAN TUMOR WEIGHT [3]: 393 mg
